Where two headings read alike, the source gives them in different places. Marks after values point to notes of the source that are not given here.
Legend:
[1] = Peptide toxins in the blood / toxicokinetics in beagles with biliary drainage; assay type: in vivo, beagle dogs; parameters: Dose normalized AUC (0–∞) / Dose normalized Cmax: unit not given here; conditions: for T1/2 / AUC (0–∞) / CL/F / Cmax / Dose normalized AUC (0–∞) / Dose normalized Cmax / MRT (0–∞) / Tmax / Vd/F: biliary drainage, plasma, mean ± SD; for T1/2: UPLC-ESI-MS/MS; for Vd/F: male, beagle, dog, read-out: Vz/F
Description: (§1) The study was approved by National Institute of Occupational Health and Poison Control review board for animal experiments. Twenty-four male beagles (age, 8–10 months; weight, 10 ± 1 kg) were obtained from Beijing Institute of Xieerxin Biology Resource (Beijing, China). They were randomly divided into four groups of six animals each: control, biliary drainage, and 20 and 60 mg/kg with biliary drainage groups. The biliary drainage operation was conducted in all groups barring the control group. The dogs were dressed in homemade underwear, coats, and Elizabeth circles for a week to ensure pre-experimental acclimatization (Figure S8a–c). After determining the baseline values for biochemical indicators, the dogs were fasted for 24 h but received water ad libitum. They were anesthetized by intravenous administration of pentobarbital sodium (3%, 1 mL/kg) during the surgery. A temperature of 38–39 °C was maintained with a warming mat. After skin preservation and sterilization, the abdominal cavity was opened through the central abdomen. The abdomen was explored and blunt dissection of the common bile duct was performed (Figure S8d). The common bile duct and its branches were ligated from the intestinal side. A 7.0-Fr drainage catheter (COOK, Bloomington, IN, USA) was percutaneously inserted into the gallbladder, and a medical drainage bag was connected to the drainage catheter coming out of the abdominal cavity. Each opened layer, including the peritoneum, abdominal wall muscle, and skin, was closed with suture. The operative incision was protected with sterile gauze and a bandage, and the dogs were dressed in homemade underwear, coats, and Elizabeth circles. The drainage bag was placed in the pocket of the coat (Figure S8e). After the anesthetic wore off, the dogs were placed in cages, and food and water were provided ad libitum. The operative incision was sterilized with iodophor twice a day until stitches were removed six days after surgery. The drainage bag was replaced every day. On the eighth day after surgery, the 20 and 60 mg/kg with biliary drainage groups were orally administered a lyophilized powder of Amanita exitialis in starch capsules. In control and bile drainage group, the beagle dogs were fed with empty capsules. Immediately after dosing, the animals were placed in their cages, and food and water were provided ad libitum. Dogs were sacrificed with an overdose of sodium pentobarbital at the end of the experiment. All procedures were performed according to the ethical standards of the National Institutes of Health Guide for Animal Welfare and approved by the Institutional Animal Care and Use Committee (EAWE-2017-005).
(§2) Peptide toxins in blood and urine samples were analyzed as described previously. Bile samples from Days 0–1, Days 1–2, Days 2–3, and Days 3–4 were collected and stored in medical drainage bags and the bile volume was recorded. Plasma and urine samples were stored at 2–8 °C until analysis for peptide toxins.
(§3) UPLC and MS/MS parameters were as described in our previous study. The limit of detection and limit of quantitation of each toxin in the bile were 0.03 mg/kg and 0.5 mg/kg, respectively.
Toxicokinetic parameters were described in our previous study. Measurement data are reported as mean ± standard deviation values and enumeration data are reported as percentage (%). […] SPSS 22.0 (IBM Corporation, Armonk, NY, USA, 2015) was used for statistical analysis. The criterion for statistical significance was p ≤ 0.05. Except for the biliary drainage operation, the animals and methods in our present study are in accordance with our previously published study. Thus, by directly comparing the data from this study with those from our published studies on Amanita exitialis-exposed beagles without biliary drainage, we can evaluate the impact of biliary drainage on the toxicity and toxicokinetics of Amanita exitialis in beagles.

[2] = Peptide toxins in the urine of beagles with biliary drainage; assay type: in vivo, beagle dogs; conditions: for Total (accumulated) amount excreted in urine / percentage of total urine excretion, Total: 0–4 days
Description: as §1, §2, §3

[3] = 20 mg/kg Amanita exitialis oral
[4] = 60 mg/kg Amanita exitialis oral
[5] = 20 mg/kg with biliary drainage group
[6] = 60 mg/kg with biliary drainage group
[7] = 1–2 days, 20 mg/kg with biliary drainage group
[8] = 1–2 days, 60 mg/kg with biliary drainage group
[9] = 2–3 days, 20 mg/kg with biliary drainage group
[10] = 2–3 days, 60 mg/kg with biliary drainage group
[11] = 3-4d, 20 mg/kg with biliary drainage group
[12] = 3-4d, 60 mg/kg with biliary drainage group
[13] = 3–4 days, 20 mg/kg with biliary drainage group
[14] = 3–4 days, 60 mg/kg with biliary drainage group

CC[C@H](C)[C@@H]1NC(=O)CNC(=O)[C@@H]2Cc3c([nH]c4cc(O)ccc34)[S@+]([O-])C[C@H](NC(=O)CNC1=O)C(=O)N[C@@H](CC(=O)O)C(=O)N1C[C@H](O)C[C@H]1C(=O)N[C@@H]([C@@H](C)[C@@H](O)CO)C(=O)N2 [β-amanitin]
detection rate of peptide toxins in blood ([1]; 0 h after ingestion, 20 mg/kg with biliary drainage group): 0%
detection rate of peptide toxins in blood ([1]; 0 h after ingestion, 60 mg/kg with biliary drainage group): 0%
T1/2 [1, 3]: 1.29 ± 1.07 h
AUC (0–∞) [1, 3]: 3.24 ± 1.49 µg·h/L
CL/F [1, 3]: 10.7 ± 7 mL/min/kg
Cmax [1, 3]: 0.85 ± 0.33 µg/L
Dose normalized AUC (0–∞) [1, 3]: 179 ± 82.4
Dose normalized Cmax [1, 3]: 57 ± 18.3
MRT (0–∞) [1, 3]: 3.83 ± 1.02 h
Tmax [1, 3]: 1.63 ± 0.48 h
T1/2 [1, 4]: 1.54 ± 0.71 h
AUC (0–∞) [1, 4]: 15.75 ± 4.27 ^a,b µg/L × h
CL/F [1, 4]: 5.5 ± 1.5 mL/min/kg
Cmax [1, 4]: 5.18 ± 1.32 ^a,b µg/L
Dose normalized AUC (0–∞) [1, 4]: 222.3 ± 79.2
Dose normalized Cmax [1, 4]: 96 ± 24.4
MRT (0–∞) [1, 4]: 3.89 ± 0.46 h
Tmax [1, 4]: 1.25 ± 0.29 h
detection rate of peptide toxins in blood ([1]; 0.25 h after ingestion, 20 mg/kg with biliary drainage group): 0%
detection rate of peptide toxins in blood ([1]; 0.25 h after ingestion, 60 mg/kg with biliary drainage group): 50%
detection rate of peptide toxins in blood ([1]; 0.5 h after ingestion, 20 mg/kg with biliary drainage group): 33%
detection rate of peptide toxins in blood ([1]; 0.5 h after ingestion, 60 mg/kg with biliary drainage group): 66%
detection rate of peptide toxins in blood ([1]; 1 h after ingestion, 20 mg/kg with biliary drainage group): 100%
detection rate of peptide toxins in blood ([1]; 1 h after ingestion, 60 mg/kg with biliary drainage group): 100%
detection rate of peptide toxins in blood ([1]; 1.5 h after ingestion, 20 mg/kg with biliary drainage group): 100%
detection rate of peptide toxins in blood ([1]; 1.5 h after ingestion, 60 mg/kg with biliary drainage group): 100%
detection rate of peptide toxins in blood ([1]; 2 h after ingestion, 20 mg/kg with biliary drainage group): 100%
detection rate of peptide toxins in blood ([1]; 2 h after ingestion, 60 mg/kg with biliary drainage group): 100%
detection rate of peptide toxins in blood ([1]; 3 h after ingestion, 20 mg/kg with biliary drainage group): 100%
detection rate of peptide toxins in blood ([1]; 3 h after ingestion, 60 mg/kg with biliary drainage group): 100%
detection rate of peptide toxins in blood ([1]; 4 h after ingestion, 20 mg/kg with biliary drainage group): 100%
detection rate of peptide toxins in blood ([1]; 4 h after ingestion, 60 mg/kg with biliary drainage group): 100%
detection rate of peptide toxins in blood ([1]; 5 h after ingestion, 20 mg/kg with biliary drainage group): 100%
detection rate of peptide toxins in blood ([1]; 5 h after ingestion, 60 mg/kg with biliary drainage group): 100%
detection rate of peptide toxins in blood ([1]; 6 h after ingestion, 20 mg/kg with biliary drainage group): 83%
detection rate of peptide toxins in blood ([1]; 6 h after ingestion, 60 mg/kg with biliary drainage group): 100%
detection rate of peptide toxins in blood ([1]; 8 h after ingestion, 20 mg/kg with biliary drainage group): 83%
detection rate of peptide toxins in blood ([1]; 8 h after ingestion, 60 mg/kg with biliary drainage group): 100%
detection rate of peptide toxins in blood ([1]; 10 h after ingestion, 20 mg/kg with biliary drainage group): 66%
detection rate of peptide toxins in blood ([1]; 10 h after ingestion, 60 mg/kg with biliary drainage group): 100%
detection rate of peptide toxins in blood ([1]; 12 h after ingestion, 20 mg/kg with biliary drainage group): 33%
detection rate of peptide toxins in blood ([1]; 12 h after ingestion, 60 mg/kg with biliary drainage group): 100%
detection rate of peptide toxins in blood ([1]; 24 h after ingestion, 20 mg/kg with biliary drainage group): 0%
detection rate of peptide toxins in blood ([1]; 24 h after ingestion, 60 mg/kg with biliary drainage group): 33%
detection rate of peptide toxins in blood ([1]; 36 h after ingestion, 20 mg/kg with biliary drainage group): 0%
detection rate of peptide toxins in blood ([1]; 36 h after ingestion, 60 mg/kg with biliary drainage group): 0%
detection rate of peptide toxins in blood ([1]; 48 h after ingestion, 20 mg/kg with biliary drainage group): 0%
detection rate of peptide toxins in blood ([1]; 48 h after ingestion, 60 mg/kg with biliary drainage group): 0%
time at which toxins were detected in plasma after ingestion ([1]; beagles with biliary drainage, oral Amanita exitialis): 30 min
Vd/F [1, 3]: 0.78 ± 0.63 L/kg
Vd/F [1, 4]: 1.38 ± 0.59 L/kg
detection rate of peptide toxins in urine ([2]; 0-1 d, 20 mg/kg with biliary drainage group): 100%
detection rate of peptide toxins in urine ([2]; 0-1 d, 60 mg/kg with biliary drainage group): 100%
daily amount excreted in urine ([2]; 0–1 days, 20 mg/kg with biliary drainage group): 0.0050 mg
percentage of total urine excretion excreted daily ([2]; 0–1 days, 20 mg/kg with biliary drainage group, 20 mg/kg): more than 90%
percentage of total urine excretion excreted daily ([2]; 0–1 days, 20 mg/kg with biliary drainage group, listed as β-Amanitin, 20 mg/kg): 93.9%
daily amount excreted in urine ([2]; 0–1 days, 60 mg/kg with biliary drainage group): 0.0065 mg
percentage of total urine excretion excreted daily ([2]; 0–1 days, 60 mg/kg with biliary drainage group, 60 mg/kg): more than 90%
percentage of total urine excretion excreted daily ([2]; 0–1 days, 60 mg/kg with biliary drainage group, listed as β-Amanitin, 60 mg/kg): 91.4%
Total (accumulated) amount excreted in urine [2, 5]: 0.0055 mg
percentage of total urine excretion, Total [2, 5]: 100%
Total (accumulated) amount excreted in urine [2, 6]: 0.0068 mg
percentage of total urine excretion, Total [2, 6]: 100%
time within which toxin was detected in urine [2, 5]: two
time within which toxin was detected in urine [2, 6]: two
detection rate of peptide toxins in urine ([2]; 1-2 d, 20 mg/kg with biliary drainage group): 50%
detection rate of peptide toxins in urine ([2]; 1-2 d, 60 mg/kg with biliary drainage group): 83%
daily amount excreted in urine [2, 7]: 0.0005 mg
percentage of total urine excretion excreted daily [2, 7]: 6.1%
daily amount excreted in urine [2, 8]: 0.0003 mg
percentage of total urine excretion excreted daily [2, 8]: 8.6%
detection rate of peptide toxins in urine ([2]; 2-3 d, 20 mg/kg with biliary drainage group): 0%
toxin content in urine ([2]; 2-3d, 20 mg/kg with biliary drainage group, mean ± SD): 0 µg/L
detection rate of peptide toxins in urine ([2]; 2-3 d, 60 mg/kg with biliary drainage group): 0%
toxin content in urine ([2]; 2-3d, 60 mg/kg with biliary drainage group, mean ± SD): 0 µg/L
daily amount excreted in urine [2, 9]: 0(0%) mg
percentage of total urine excretion excreted daily [2, 9]: 0(0%)
daily amount excreted in urine [2, 10]: 0(0%) mg
percentage of total urine excretion excreted daily [2, 10]: 0(0%)
detection rate of peptide toxins in urine [2, 11]: 0%
toxin content in urine [2, 11]: 0 µg/L
detection rate of peptide toxins in urine [2, 12]: 0%
toxin content in urine [2, 12]: 0 µg/L
daily amount excreted in urine [2, 13]: 0(0%) mg
percentage of total urine excretion excreted daily [2, 13]: 0(0%)
daily amount excreted in urine [2, 14]: 0(0%) mg
percentage of total urine excretion excreted daily [2, 14]: 0(0%)
share of total urine excretion in the 0–2-day urine ([2]; beagles with biliary drainage, both dose groups): more than 95%
